Data from patent US12036228B2, “Treatment of seizure disorders” (Shackelford Pharma Inc., priority 2022, dated 2024).

Tests used:
DS, LGS, TSC patients [1] = assay: EPIDIOLEX pediatric randomized controlled clinical trials (RCTs); assay type: in vivo, human; details: Ped. RCTs; expected 5%
[2] = system: Treatment Resistant Epilepsy patients; assay: EPIDIOLEX expanded access program (EAP), adults and pediatrics; assay type: in vivo, human; details: expected 5%
DS, LGS, TSC patients [3] = details: Ped. RCTs, cited from earlier work
[4] = system: Treatment Resistant Epilepsy patients; details: EAP, cited from earlier work
[5] = system: seizures in human patient; assay: Example 3 human patient, GTC and complex partial seizures; assay type: in vivo
Text: A patient first started having GTC and complex partial (CP) seizures. […] The patient was referred for evaluation for initiation of cannabinoid/THC treatment in March 2014.

[6] = system: GTC seizures in human patient; assay: Example 6 human patient, GTC and CPS seizures after temporal lobectomy; assay type: in vivo; details: re-introduction of lamotrigine (225 mg twice a day)
Method: A patient with a longstanding history of GTC and CPS seizures ([…]) was evaluated for surgical intervention and underwent a right temporal lobectomy in 2013. No seizure activity was experienced for 9 months; thereafter, seizures recurred with GTC seizures occurring one time per week requiring hospitalization.
The patient was first evaluated for cannabinoid treatment on Feb. 11, 2016, […] with their parents (caregivers). They were still experiencing approximately 1 GTC seizure per month at that time. On physical examination, their neurological system was grossly within normal limits. The patient's mentation was evaluated as slow, but they were responsive and fully oriented. At the time of this first visit, they had no previous exposure to cannabinoid treatment.

[7] = system: GTC seizures in human patients; assay: THC treatment of several human patients with GTC seizures (responder rate, one-year remission rate, adverse effects); assay type: in vivo
Text: Several human patients commenced treatment with THC after a first visit. More details about the treatment are provided below. The group included 82 total adult patients and 12 total pediatric patients. Of those 94 patients, 34 adult patients and 10 pediatric patients had experienced at least one GTC seizure in the year preceding the first visit. At the time of first visit, 14 of the 34 adult patients and 8 of the 10 pediatric patients had never taken THC. At the time of first visit, five of the 34 adult patients and two of the 10 pediatric patients were consistently/regularly taking THC. At the time of first visit, 15 of the 34 adult patients and none of the 10 pediatric patients were inconsistently/irregularly taking THC or had taken THC at some point in the past and were no longer taking THC.
At the time of first visit, 16 of the 34 adult patients had treatment resistant epilepsy, which means the patients had persistent GTC seizures despite taking two different anti-seizure medications at, or prior to, the first visit. At the time of first visit, all 10 of the pediatric patients had treatment resistant epilepsy.
The first visit means the date when the patient first saw the doctor for evaluation for THC treatment for GTC seizures. Responder rates means the percentage of patients that had at least a 50% reduction in GTC seizure frequency over a one-year treatment period with THC. One-year remission rate means the percentage of patients that experienced no GTC seizures in a one-year period after commencing THC treatment.
All of the 34 adult patients and 10 pediatric patients were taking other anti-seizure medications or had other anti-seizure treatment at the time of the first visit. […] Those anti-seizure medications and other anti-seizure treatments included: lamotrigine, topiramate, topiramate XR, vagus nerve stimulation, phenytoin, valproic acid, zonisamide, benzodiazepine, surgery, levetiracetam, carbamazepine, oxcarbazepine, lacosamide, perampanel, clonazepam, phenobarbial, pregabalin, gabapentin, rufinamide, CBD (e.g., Epidiolex), clobazam, and felbamate. Also, all patients who were using THC oral dosages were using products that included no CBD or products that included CBD in doses well below the therapeutic dose for Epidiolex.
THC Treatment for the 82 adult patients varied. Many of the patients smoked marijuana, so the dosage and/or timing of the dosage was unknown. Because CBD is delivered at sub-therapeutic levels when marijuana is smoked, it is acceptable to attribute any therapeutic effect to THC. The label for the CBD drug Epidiolex includes dosages starting at 5 mg/kg daily for all indications, and increasing to maintenance doses of 10 mg/kg or 20 mg/kg for Lennox-Gestault Syndrome and Dravet Syndrome, and increasing to maintenance doses of 25 mg/kg per day for Tuberous Sclerosis Complex. When 1 gram of cannabis is smoked, it delivers CBD to the lungs in doses well below the therapeutic dose levels prescribed for Epidiolex. Some other patients took unknown dosages of THC orally.

[8] = system: seizures / EEG abnormalities in human patient; assay: Example 8 pediatric patient with atonic seizures, myoclonic seizures and Doose syndrome (24 hour EEG, seizures); assay type: in vivo; details: CBD transdermal patches
Method: They had continued to experience several seizures per day of all types despite multiple combination regimens of prescription anti-seizure medications and a trial of THC-A transdermal patch and CBD (Charlotte's Web) oral tincture and CBD transdermal patches up until the day they were first evaluated for cannabinoid treatment (age 4.5 on Mar. 8, 2016). […] They were then prescribed 1 mg oral THC tincture three times per day. On Mar. 8, 2018, the patient returned for follow-up where it was learned that all cannabinoids had been discontinued. […] The THC-A transdermal patch was restarted at 1.875 mg/day with a reduction in EEG abnormalities to 400/24 hours. Oral THC 2.5 mg BID was then restarted with a further reduction in EEG abnormalities to 20/24 hours. […] Due to the significant reduction in brain pre-seizure activity after restarting THC and concerns that there are effective dosage variations among transdermal products, the patient was then prescribed oral THC 2.5 mg BID which they continue to take.

C=C(C)[C@@H]1CCC(C)=C[C@H]1c1c(O)cc(CCCCC)cc1O [EPIDIOLEX ®]
Increase in 1 YR Seizure Remission Rate over expected (DS, LGS, TSC patients [1]): ~1.4X | Increase in 1 YR Seizure Remission Rate over expected [2]: ~2.2X | 1 YR Seizure Remission Rate (DS, LGS, TSC patients [3]; @14 wks): 6-7% @14 wks | Responder Rate (DS, LGS, TSC patients [3]; DS, LGS, TSC, @ 14 wks): ~45% @ 14 | Adverse Events (DS, LGS, TSC patients [3]): Up to 12% | 1 YR Seizure Remission Rate ([4]; @48 wks): 11% @48 wks | Responder Rate ([4]; TRE, @48 wks): 53% @48 wks | Adverse Events [4]: 7%

Nc1nnc(-c2cccc(Cl)c2Cl)c(N)n1 [lamotrigine]
effect on seizures ([5]; lamotrigine 60 mg twice daily): still having seizures | seizure frequency [6]: decreased to 1 GTC seizure about every month

C=C(C)[C@@H]1CCC(C)=C[C@H]1c1c(O)cc(CCCCC)cc1O [CBD, cannabidiol]
seizure outcome, individual pediatric patient ([7]; CBD-only containing product, 134 mg CBD per day and no THC): frequent “violent” GTC seizures | seizure frequency and severity, individual pediatric patient ([7]; switched to 30 mg CBD only (2015)): seizure frequency and severity increased | effect on seizures [8]: worsened seizures in a dose-related fashion | effect on seizures ([5]; CBD patches and an oral CBD spray): no improvement in their seizures | effect on seizures ([5]; oral CBD 0.48 mg/kg, or 50 mg per day, along with topiramate): no improvement
